Assay results: patent publication US7008786B2, “Microorganism producing L-lysine and processes for producing L-lysine using the same” (priority 2000, dated 2006)

Columns and labels:
[1] = tested on: Corynebacterium glutamicum CJM107; assay: Resistance to monensin: growth on minimal agar plate medium containing monensin; type: cell-based; conditions: Monensin 7,000 μg/l, 4 days, mutant strain CJM107
Protocol: (§1) The parent CH77 strain and the mutant CJM107 strain were tested for their resistance to monensin by the following method. Cells were grown in a Luria-Bertani (LB) liquid medium for 16 hours. Then, the cells were washed twice with a sterilized physiological saline and then, appropriately diluted and cultivated on a minimal agar plate medium [glucose 10 g, (NH4)2SO4 2 g, urea 2 g, KH2PO4 1 g, K2HPO4 3 g, MgSO4.7H2O 0.5 g, FeSO4.7H2O 10 mg, MnSO4.7H2O 10 mg, biotin 100 μg, Thiamin.HCl 100 μg, CaCl2.2H2O 100 μg, Na2B4O7.10H2O 80 μg, (NH4)6MoO27.4H2O 40 μg, ZnSO4.7H2O 10 μg, CuSO4.7H2O 10 μg, MnCl2.4H2O 10 μg, FeCl3.6H2O 1 mg, agar 20 g, if necessary L-leucine 0.1 g, if necessary L-threonine 0.1 g, if necessary L-methionine 0.1 g, per distilled water of 11 (pH 7.0)] containing monensin of 7,000 μg/1 for 4 days.

[2] = tested on: Corynebacterium glutamicum CH77; assay: as above; type: cell-based; conditions: Monensin 7,000 μg/l, 4 days, parent strain CH77
Protocol: as §1

CC[C@@]1([C@@H]2O[C@@H]([C@H]3O[C@@](O)(CO)[C@H](C)C[C@@H]3C)C[C@@H]2C)CC[C@H]([C@]2(C)CC[C@]3(C[C@H](O)[C@@H](C)[C@@H]([C@@H](C)[C@@H](OC)[C@H](C)C(=O)O)O3)O2)O1 [Monensin, monensin]
Growth of CJM107 in the presence of monensin [1]: +++
Growth of CH77 in the presence of monensin [2]: −
